Consider 20 compounds from US20260234144A1 (TAY THERAPEUTICS LIMITED, priority 2023, published 2026).

The test system of the test is R223X stop codon in the mutated luciferase gene, ADXC8 luciferase reporter cell line. Put plainly: cells. As to conditions: ADXC8 cells, 24 hours; for Emax / EC (100% of 200 uM G418 response): 24 h; for Emax: read-out: Fold Over Control, maximum fold response relative to 200 μM G418; for EC (100% of 200 uM G418 response): read-out: pC100%, negative logarithm of the concentration giving the same response as 200 μM G418. The test is classed as cell-based.

Each structure is given as a SMILES string.

As to `Cc1cc(C)c2c(N)nc(NC3CCN(Cc4cccc5cn[nH]c45)CC3)nc2n1` [Example 659], the Emax was in the range of 100 to 3000% and the EC (100% of 200 uM G418 response) is 0.1 to 1 µM.
For `CNc1nc(NC2CC3CCC2N3C)nc2nc(C)cc(C)c12` (stereo not drawn) [Example 592] the same measures were 100 to 3000% and 1 to 10 µM.
For the compound `CNc1nc(N[C@H]2CN(C3CC3)C[C@H]2F)nc2nc(C)cc(C)c12` [Example 519, N^2-((3S,4R)-1-cyclopropyl-4-fluoropyrrolidin-3-yl)-N^4,5,7-trimethylpyrido[2,3-d]pyrimidine-2,4-diamine], the Emax lay within 0 to 100% and the EC (100% of 200 uM G418 response) is above 31.6 µM.
For `Cc1nc2nc(NC3CCN(C)CC3)nc(N)c2c(C)c1Cl` [Example 130, 6-chloro-5,7-dimethyl-N^2-(1-methylpiperidin-4-yl)pyrido[2,3-d]pyrimidine-2,4-diamine] the same measures were 100 to 3000% and 1 to 10 µM.
The like results for `CNc1nc(N[C@@H]2CCCN(C)CC2)nc2nc(C)cc(C)c12` [Example 401] were, in that order, 100 to 3000% and 1 to 10 µM.
For `CN1CCC(Nc2nc(N)c3ccc(Nc4ccccc4)nc3n2)CC1` [Example 35, N^2-(1-methylpiperidin-4-yl)-N^7-phenylpyrido[2,3-d]pyrimidine-2,4,7-triamine] the same measures were 0 to 100% and above 100 µM.
`CNc1nc(NC2CCN3CCCC3C2)nc2nc(C)cc(C)c12` (single isomer, unassigned) [Example 443]: the Emax was 100 to 3000%. Further, under “negative logarithm of the concentration giving the same response as 200 μM G418”, the pC100% result is “++ (pC100% > 5.0 ≤ 6.0)”.
Consider `Cc1c2c(nc3nc(NC4CCN(Cc5ccccc5C(=O)O)CC4)nc(N)c13)CCC2` [Example 675], for which the Emax was in the range of 0 to 100% and the EC (100% of 200 uM G418 response) is above 31.6 µM.
Consider `CNc1nc(N[C@H]2CN(C)C[C@@H]2OC(=O)C(C)(C)C)nc2nc3c(c(C)c12)CCC3` [Example 681], for which the Emax fell in the range of 100 to 3000% and the EC (100% of 200 uM G418 response) was in the range of 0.1 to 1 µM.
The like results for `Cc1cc(C)c2c(N)nc(N[C@@H]3CCN(Cc4ccc(C#N)cc4)C[C@H]3O)nc2n1` [Example 558] were, in that order, 100 to 3000% and 1 to 10 µM.
The like results for `CC(C)Oc1ccc2c(N)nc(NC3CCN(C)CC3)nc2n1` [Example 38, 7-isopropoxy-N^2-(1-methylpiperidin-4-yl)pyrido[2,3-d]pyrimidine-2,4-diamine] were, in that order, 0 to 100% and above 100 µM.
As to `CSc1ccccc1-c1ccc2c(N)nc(NC3CCN(C)CC3)nc2n1` [Example 82], the EC (100% of 200 uM G418 response) was 1 to 10 µM.
In the case of `Cc1cc(C(C)C)nc2nc(NC3CCN(C)CC3)nc(N)c12` [Example 602], the EC (100% of 200 uM G418 response) is 1 to 10 µM.
`Cc1nc2nc(NC3CCN(Cc4ccc(C#N)cc4O)CC3)nc(N)c2c2c1CCC2` [Example 534]: the Emax lay within 100 to 3000% and the EC (100% of 200 uM G418 response) is 0.1 to 1 µM.
The like results for `CN1CCC(Nc2nc(N)c3ccc(-c4cccc(S(N)(=O)=O)c4)nc3n2)CC1` [Example 55] were, in that order, 100 to 3000% and 10 to 100 µM.
As for `COCc1cccc(-c2ccc3c(N)nc(NC4CCN(C)CC4)nc3n2)c1` [Example 81], the EC (100% of 200 uM G418 response) was in the range of 1 to 10 µM.
As to `CC(=O)Nc1cccc(CN2CCC(Nc3nc(N)c4c(C)cc(C)nc4n3)CC2)c1` [Example 480], the Emax is 100 to 3000% and the EC (100% of 200 uM G418 response) was in the range of 10 to 100 µM.
For `Cc1nc2nc(NC3CCN(Cc4ccncc4O)CC3)nc(N)c2c2c1CCC2` [Example 530] the same measures were 100 to 3000% and 0.1 to 1 µM.
Consider `Cc1cc(C)c2c(N)nc(NCC3CCCCN3C)nc2n1` (stereo not drawn) [Example 144], for which the Emax is 100 to 3000% and the EC (100% of 200 uM G418 response) lay in the range of 1 to 10 µM.
`CNc1nc(N[C@H]2CNC[C@@H](O)C2)nc2nc(C)cc(C)c12` [Example 610]: the EC (100% of 200 uM G418 response) is 1 to 10 µM.
